Data as given in patent publication US9840513B2 (AbbVie S.à.r.l., priority 2015, dated 2017).

Target: T1, F508delCFTR cell surface expression in CFBE41o-F508delCFTR-HRP cells (Homo sapiens, UniProt P13569, DEL508-508)
T1 construct: fused on or other part: Horseradish peroxidase (HRP) reporter inserted in the fourth exofacial (extracellular) loop of CFTR; expression is doxycycline-inducible
Experiment: Cell Surface Expression-Horse Radish Peroxidase (CSE-HRP) Assay
Type: cell-based
Settings: for EC50: CFBE41o-F508delCFTR-HRP cells, 18-24 hours at 33° C., 8-point curve, highest concentration 20 μM; for Maximum % activity (%): maximum at any tested concentration, normalized to on-plate positive control (3 μM)
Summary of the method: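 Correctors incubated 18-24 h at 33 °C on doxycycline-induced (0.5 μg/mL, 72 h) CFBE41o-F508delCFTR-HRP cells, 3-fold series from 20 μM. After DPBS washes, luminol luminescence read; activity expressed relative to DMSO and a 3 μM positive control, EC50 fitted from triplicate plates.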

T1 sequence (P13569 with tags, fused parts or gaps DEL508-508 limits assumed): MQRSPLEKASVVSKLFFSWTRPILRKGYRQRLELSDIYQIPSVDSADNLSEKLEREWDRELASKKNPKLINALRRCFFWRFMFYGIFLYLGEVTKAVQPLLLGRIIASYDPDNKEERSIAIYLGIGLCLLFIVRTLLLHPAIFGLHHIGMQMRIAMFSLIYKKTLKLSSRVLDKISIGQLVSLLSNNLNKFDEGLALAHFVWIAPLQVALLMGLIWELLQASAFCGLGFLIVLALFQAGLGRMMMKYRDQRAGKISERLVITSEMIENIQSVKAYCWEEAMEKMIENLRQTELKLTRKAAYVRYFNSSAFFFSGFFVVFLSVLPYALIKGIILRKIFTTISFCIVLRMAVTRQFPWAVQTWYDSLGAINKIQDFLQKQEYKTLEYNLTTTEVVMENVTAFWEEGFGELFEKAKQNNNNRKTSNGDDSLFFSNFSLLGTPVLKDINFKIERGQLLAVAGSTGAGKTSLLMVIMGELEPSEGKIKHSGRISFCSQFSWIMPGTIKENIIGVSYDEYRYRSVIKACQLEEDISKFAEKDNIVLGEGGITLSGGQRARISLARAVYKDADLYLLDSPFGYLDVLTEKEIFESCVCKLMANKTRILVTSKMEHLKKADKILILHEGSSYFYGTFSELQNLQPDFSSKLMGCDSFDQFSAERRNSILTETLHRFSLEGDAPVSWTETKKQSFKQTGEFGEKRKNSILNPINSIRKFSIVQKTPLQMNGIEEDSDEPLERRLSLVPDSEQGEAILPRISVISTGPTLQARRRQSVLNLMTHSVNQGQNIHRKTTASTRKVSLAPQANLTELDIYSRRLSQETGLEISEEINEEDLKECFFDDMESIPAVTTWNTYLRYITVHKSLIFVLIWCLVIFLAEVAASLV
T1 sequence (P13569 919-1480 limits assumed, stated change not applied): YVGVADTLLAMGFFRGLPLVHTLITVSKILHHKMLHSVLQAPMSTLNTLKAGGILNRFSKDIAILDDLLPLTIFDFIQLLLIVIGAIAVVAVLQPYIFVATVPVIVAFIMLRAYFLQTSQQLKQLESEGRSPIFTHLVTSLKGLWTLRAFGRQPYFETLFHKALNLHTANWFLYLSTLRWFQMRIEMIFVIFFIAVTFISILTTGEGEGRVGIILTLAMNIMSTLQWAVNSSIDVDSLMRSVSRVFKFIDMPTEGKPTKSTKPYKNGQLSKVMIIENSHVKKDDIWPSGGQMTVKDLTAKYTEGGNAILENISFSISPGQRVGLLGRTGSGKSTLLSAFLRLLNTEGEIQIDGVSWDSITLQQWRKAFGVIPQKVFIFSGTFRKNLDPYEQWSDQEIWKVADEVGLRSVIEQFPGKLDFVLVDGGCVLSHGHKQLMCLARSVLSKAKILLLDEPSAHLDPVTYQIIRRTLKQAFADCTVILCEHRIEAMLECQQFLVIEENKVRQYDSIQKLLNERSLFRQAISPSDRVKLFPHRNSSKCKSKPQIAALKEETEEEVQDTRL

C[C@]1(C(=O)N[C@H]2C[C@@H]([C@H]3CC[C@H](C(=O)O)CC3)Oc3cc(OC(F)F)ccc32)COc2cc3c(cc21)OC(F)(F)O3 [Example 163, trans-4-[(2S,4S)-7-(difluoromethoxy)-4-{[(7R)-2,2-difluoro-7-methyl-6,7-dihydro-2H-furo[2,3-f][1,3]benzodioxole-7-carbonyl]amino}-3,4-dihydro-2H-1-benzopyran-2-yl]cyclohexane-1-carboxylic acid]
EC50: 810 nM
Maximum % activity (%): 75%

CCOC(=O)C1([C@H]2C[C@@H](NC(=O)[C@@]3(C)COc4cc5c(cc43)OC(F)(F)O5)c3ccc(OC(F)(F)F)cc3O2)CC1 [Example 164, ethyl 1-[(2R,4R)-4-{[(7R)-2,2-difluoro-7-methyl-6,7-dihydro-2H-furo[2,3-f][1,3]benzodioxole-7-carbonyl]amino}-7-(trifluoromethoxy)-3,4-dihydro-2H-1-benzopyran-2-yl]cyclopropane-1-carboxylate]
EC50: 106 nM
Maximum % activity (%): 122%

CCOC(=O)C1([C@@H]2C[C@H](NC(=O)[C@@]3(C)COc4cc5c(cc43)OC(F)(F)O5)c3ccc(OC(F)(F)F)cc3O2)CC1 [Example 165, ethyl 1-[(2S,4S)-4-{[(7R)-2,2-difluoro-7-methyl-6,7-dihydro-2H-furo[2,3-f][1,3]benzodioxole-7-carbonyl]amino}-7-(trifluoromethoxy)-3,4-dihydro-2H-1-benzopyran-2-yl]cyclopropane-1-carboxylate]
EC50: 2640 nM
Maximum % activity (%): 85%

C[C@@]1(C(=O)N[C@@H]2C[C@H]([C@H]3CC[C@H](C(=O)O)CC3)Oc3cc(OC(F)(F)F)ccc32)CCc2cc3c(cc21)OC(F)(F)O3 [Example 169, trans-4-[(2R,4R)-4-{[(5R)-2,2-difluoro-5-methyl-6,7-dihydro-2H,5H-indeno[5,6-d][1,3]dioxole-5-carbonyl]amino}-7-(trifluoromethoxy)-3,4-dihydro-2H-1-benzopyran-2-yl]cyclohexane-1-carboxylic acid]
EC50: 1260 nM
Maximum % activity (%): 107%

C[C@]1(C(=O)Nc2cc3cc(C4(CO)CCOCC4)n(C[C@@H](O)CO)c3cc2F)COc2cc3c(cc21)OC(F)(F)O3 [Example 170, (7R)—N-{1-[(2R)-2,3-dihydroxypropyl]-6-fluoro-2-[4-(hydroxymethyl)oxan-4-yl]-1H-indol-5-yl}-2,2-difluoro-7-methyl-6,7-dihydro-2H-furo[2,3-f][1,3]benzodioxole-7-carboxamide]
EC50: 1260 nM
Maximum % activity (%): 65%

COc1ccc2c(c1)O[C@@H](c1cnc(CO)cn1)C[C@H]2NC(=O)[C@@]1(C)COc2cc3c(cc21)OC(F)(F)O3 [Example 173, (7R)-2,2-difluoro-N-{(2R,4R)-2-[5-(hydroxymethyl)pyrazin-2-yl]-7-methoxy-3,4-dihydro-2H-1-benzopyran-4-yl}-7-methyl-6,7-dihydro-2H-furo[2,3-f][1,3]benzodioxole-7-carboxamide]
EC50: 90 nM
Maximum % activity (%): 132%

COc1ccc2c(c1)O[C@@H](c1ccc(Br)nc1)C[C@H]2NC(=O)[C@@]1(C)COc2cc3c(cc21)OC(F)(F)O3 [Example 176, (7R)—N-[(2R,4R)-2-(6-bromopyridin-3-yl)-7-methoxy-3,4-dihydro-2H-1-benzopyran-4-yl]-2,2-difluoro-7-methyl-6,7-dihydro-2H-furo[2,3-f][1,3]benzodioxole-7-carboxamide]
EC50: 270 nM
Maximum % activity (%): 118%

COc1ccc2c(c1)O[C@@H](c1ccc(C(C)=O)cn1)C[C@H]2NC(=O)[C@@]1(C)COc2cc3c(cc21)OC(F)(F)O3 [Example 180, (7R)—N-[(2R,4R)-2-(5-acetylpyridin-2-yl)-7-methoxy-3,4-dihydro-2H-1-benzopyran-4-yl]-2,2-difluoro-7-methyl-6,7-dihydro-2H-furo[2,3-f][1,3]benzodioxole-7-carboxamide]
EC50: 20 nM
Maximum % activity (%): 124%

COc1ccc2c(c1)O[C@@H](c1ccc(C(C)(C)O)cn1)C[C@H]2NC(=O)[C@@]1(C)COc2cc3c(cc21)OC(F)(F)O3 [Example 181, (7R)-2,2-difluoro-N-{(2R,4R)-2-[5-(2-hydroxypropan-2-yl)pyridin-2-yl]-7-methoxy-3,4-dihydro-2H-1-benzopyran-4-yl}-7-methyl-6,7-dihydro-2H-furo[2,3-f][1,3]benzodioxole-7-carboxamide]
EC50: 30 nM
Maximum % activity (%): 129%

C[C@]1(C(=O)N[C@@H]2C[C@H](C3CCNCC3)Oc3cc(OC(F)(F)F)ccc32)COc2cc3c(cc21)OC(F)(F)O3 [Example 182, (7R)-2,2-difluoro-7-methyl-N-[(2R,4R)-2-(piperidin-4-yl)-7-(trifluoromethoxy)-3,4-dihydro-2H-1-benzopyran-4-yl]-6,7-dihydro-2H-furo[2,3-f][1,3]benzodioxole-7-carboxamide]
EC50: 1680 nM
Maximum % activity (%): 195%

CC(C)(C)OC(=O)CN1CCC([C@@H]2C[C@H](NC(=O)[C@@]3(C)COc4cc5c(cc43)OC(F)(F)O5)c3ccc(OC(F)(F)F)cc3O2)CC1 [Example 183, tert-butyl {4-[(2S,4S)-4-{[(7R)-2,2-difluoro-7-methyl-6,7-dihydro-2H-furo[2,3-f][1,3]benzodioxole-7-carbonyl]amino}-7-(trifluoromethoxy)-3,4-dihydro-2H-1-benzopyran-2-yl]piperidin-1-yl}acetate]
EC50: 2220 nM
Maximum % activity (%): 60%

C[C@]1(C(=O)N[C@H]2C[C@@H](C3CCN(CC(=O)O)CC3)Oc3cc(OC(F)(F)F)ccc32)COc2cc3c(cc21)OC(F)(F)O3 [Example 184, {4-[(2S,4S)-4-{[(7R)-2,2-difluoro-7-methyl-6,7-dihydro-2H-furo[2,3-f][1,3]benzodioxole-7-carbonyl]amino}-7-(trifluoromethoxy)-3,4-dihydro-2H-1-benzopyran-2-yl]piperidin-1-yl}acetic acid]
EC50: > 20000 nM
Maximum % activity (%): 12%

C[C@]1(C(=O)N[C@H]2C[C@@H](C3CCNCC3)Oc3cc(OC(F)(F)F)ccc32)COc2cc3c(cc21)OC(F)(F)O3 [Example 185, (7R)-2,2-difluoro-7-methyl-N-[(2S,4S)-2-(piperidin-4-yl)-7-(trifluoromethoxy)-3,4-dihydro-2H-1-benzopyran-4-yl]-6,7-dihydro-2H-furo[2,3-f][1,3]benzodioxole-7-carboxamide]
EC50: 3350 nM
Maximum % activity (%): 31%

CC(C)(C)OC(=O)CN1CCC([C@H]2C[C@@H](NC(=O)[C@@]3(C)COc4cc5c(cc43)OC(F)(F)O5)c3ccc(OC(F)(F)F)cc3O2)CC1 [Example 186, tert-butyl {4-[(2R,4R)-4-{[(7R)-2,2-difluoro-7-methyl-6,7-dihydro-2H-furo[2,3-f][1,3]benzodioxole-7-carbonyl]amino}-7-(trifluoromethoxy)-3,4-dihydro-2H-1-benzopyran-2-yl]piperidin-1-yl}acetate]
EC50: 670 nM
Maximum % activity (%): 189%

C[C@]1(C(=O)N[C@@H]2C[C@H](C3CCN(CC(=O)O)CC3)Oc3cc(OC(F)(F)F)ccc32)COc2cc3c(cc21)OC(F)(F)O3 [Example 187, {4-[(2R,4R)-4-{[(7R)-2,2-difluoro-7-methyl-6,7-dihydro-2H-furo[2,3-f][1,3]benzodioxole-7-carbonyl]amino}-7-(trifluoromethoxy)-3,4-dihydro-2H-1-benzopyran-2-yl]piperidin-1-yl}acetic acid]
EC50: 2540 nM
Maximum % activity (%): 129%

C[C@]1(C(=O)N[C@H]2C[C@@H](C3CCN(C[C@H](O)CO)CC3)Oc3cc(OC(F)(F)F)ccc32)COc2cc3c(cc21)OC(F)(F)O3 [Example 188, (7R)—N-[(2S,4S)-2-{1-[(2S)-2,3-dihydroxypropyl]piperidin-4-yl}-7-(trifluoromethoxy)-3,4-dihydro-2H-1-benzopyran-4-yl]-2,2-difluoro-7-methyl-6,7-dihydro-2H-furo[2,3-f][1,3]benzodioxole-7-carboxamide]
EC50: > 20000 nM
Maximum % activity (%): 20%

C[C@]1(C(=O)N[C@@H]2C[C@H](C3CCN(C[C@H](O)CO)CC3)Oc3cc(OC(F)(F)F)ccc32)COc2cc3c(cc21)OC(F)(F)O3 [Example 189, (7R)—N-[(2R,4R)-2-{1-[(2S)-2,3-dihydroxypropyl]piperidin-4-yl}-7-(trifluoromethoxy)-3,4-dihydro-2H-1-benzopyran-4-yl]-2,2-difluoro-7-methyl-6,7-dihydro-2H-furo[2,3-f][1,3]benzodioxole-7-carboxamide]
EC50: 2030 nM
Maximum % activity (%): 186%

C=Cc1cnc([C@H]2C[C@@H](NC(=O)[C@@]3(C)COc4cc5c(cc43)OC(F)(F)O5)c3ccc(OC)cc3O2)cn1 [Example 190, (7R)—N-[(2R,4R)-2-(5-ethenylpyrazin-2-yl)-7-methoxy-3,4-dihydro-2H-1-benzopyran-4-yl]-2,2-difluoro-7-methyl-6,7-dihydro-2H-furo[2,3-f][1,3]benzodioxole-7-carboxamide]
EC50: 90 nM
Maximum % activity (%): 115%

COc1ccc2c(c1)O[C@@H](c1cnc(Cl)cn1)C[C@H]2NC(=O)[C@@]1(C)COc2cc3c(cc21)OC(F)(F)O3 [Example 193, (7R)—N-[(2R,4R)-2-(5-chloropyrazin-2-yl)-7-methoxy-3,4-dihydro-2H-1-benzopyran-4-yl]-2,2-difluoro-7-methyl-6,7-dihydro-2H-furo[2,3-f][1,3]benzodioxole-7-carboxamide]
EC50: 180 nM
Maximum % activity (%): 118%
